{"source": "paper PMC5291822", "about": "(Bioorganic & medicinal chemistry, 2016)", "key": {"[1]": {"test_system": "magnesium-dependent phosphatidate phosphohydrolase-1", "conditions": "off-target; cited from earlier work"}, "[2]": {"test_system": "experimental autoimmune encephalomyelitis", "conditions": "cited from earlier work"}, "human GIVA cPLA2 [3]": {"molecular_target": "T1, human GIVA cPLA2 (Homo sapiens, UniProt P47712)", "T1 sequence (P47712 1-749)": "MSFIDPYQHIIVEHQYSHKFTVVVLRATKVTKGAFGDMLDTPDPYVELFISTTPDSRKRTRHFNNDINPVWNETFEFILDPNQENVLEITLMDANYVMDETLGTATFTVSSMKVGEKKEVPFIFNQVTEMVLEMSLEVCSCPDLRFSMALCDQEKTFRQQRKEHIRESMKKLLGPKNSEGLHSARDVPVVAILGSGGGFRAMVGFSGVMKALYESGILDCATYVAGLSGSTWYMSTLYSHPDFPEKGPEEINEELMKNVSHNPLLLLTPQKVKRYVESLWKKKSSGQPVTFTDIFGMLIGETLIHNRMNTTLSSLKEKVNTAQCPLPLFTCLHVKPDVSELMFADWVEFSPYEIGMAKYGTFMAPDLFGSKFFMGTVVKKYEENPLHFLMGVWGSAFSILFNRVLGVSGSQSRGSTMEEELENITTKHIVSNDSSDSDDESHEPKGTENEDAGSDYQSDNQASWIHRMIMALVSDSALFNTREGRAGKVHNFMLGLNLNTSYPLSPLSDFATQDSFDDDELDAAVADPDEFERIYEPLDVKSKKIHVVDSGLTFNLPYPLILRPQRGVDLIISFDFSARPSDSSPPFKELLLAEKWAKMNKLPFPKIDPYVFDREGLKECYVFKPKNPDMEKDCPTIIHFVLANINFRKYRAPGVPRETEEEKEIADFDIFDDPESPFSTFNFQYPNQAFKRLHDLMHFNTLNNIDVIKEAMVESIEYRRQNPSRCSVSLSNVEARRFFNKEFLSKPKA", "conditions": "0.091 mol fraction; reference inhibitor; cited from earlier work"}, "human GV sPLA2": {"molecular_target": "T2, human GV sPLA2 (Homo sapiens, UniProt P39877)", "T2 sequence (P39877 21-138)": "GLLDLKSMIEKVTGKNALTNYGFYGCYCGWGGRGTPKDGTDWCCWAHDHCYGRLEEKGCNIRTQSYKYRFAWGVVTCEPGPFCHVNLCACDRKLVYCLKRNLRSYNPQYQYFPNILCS", "test": "mixed micelle modified Dole assay, GV sPLA2", "format": "biochemical"}, "human GIVA cPLA2 [4]": {"molecular_target": "T1, human GIVA cPLA2", "test": "mixed micelle modified Dole assay, GIVA cPLA2", "format": "biochemical"}}, "data": [{"smiles": "O=C1O/C(=C/Br)CCC1c1cccc2ccccc12", "note": "(centres unmarked) [BEL, Bromoenol lactone]", "values": [{"measurement": "inhibition of magnesium-dependent phosphatidate phosphohydrolase-1 (in words)", "setting": "[1]", "value": "able to inhibit"}]}, {"smiles": "O=C(CCCCc1ccccc1)C(F)(F)C(F)(F)F", "note": "[FKGK11]", "values": [{"measurement": "clinical severity and progression of experimental autoimmune encephalomyelitis", "setting": "[2]", "value": "strong reduction in the clinical severity and progression"}, {"measurement": "% Inhbition GIVA cPLA2", "setting": "human GIVA cPLA2 [3]", "value": "N.D.[17] (N.D. signifies compounds with less than 25% inhibition (or no detectable inhibition).)"}]}, {"smiles": "CCCC[C@H](NC(=O)C(=O)CCCCc1ccc(OC)cc1)C(=O)NCC(=O)OC(C)(C)C", "note": "[compound 12c, (S)-tert-Butyl 2-(2-(6-(4-methoxyphenyl)-2-oxohexanamido)hexanamido)acetate]", "values": [{"measurement": "inhibition of GV sPLA2 (in words)", "setting": "human GV sPLA2", "value": "weak inhibition"}, {"measurement": "inhibition of GIVA cPLA2 (in words)", "setting": "human GIVA cPLA2 [4]", "value": "weak inhibition"}]}]}
